Data taken from PubChem BioAssay (NCI).
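Protocol summary: plate cells (96-well), add compound at 5 concentrations, incubate 48 h, interpolate endpoints linearly. At the TGI there is no net growth.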

What was measured:
Test in all cases: growth of human tumour cells (NCI), 48 h
CCRF-CEM leukemia = tested on: CCRF-CEM leukemia
SF-295 CNS = tested on: SF-295 CNS
HCC-2998 colon = tested on: HCC-2998 colon
IGROV1 ovarian = tested on: IGROV1 ovarian
KM20L2 colon = tested on: KM20L2 colon
COLO 205 colon = tested on: COLO 205 colon
DMS 114 small cell lung = tested on: DMS 114 small cell lung
786-0 renal = tested on: 786-0 renal
UACC-257 melanoma = tested on: UACC-257 melanoma
NCI-H522 lung = tested on: NCI-H522 lung
SR leukemia = tested on: SR leukemia
K-562 leukemia = tested on: K-562 leukemia
SN12C renal = tested on: SN12C renal
NCI-H226 lung = tested on: NCI-H226 lung
SK-MEL-5 melanoma = tested on: SK-MEL-5 melanoma
MOLT-4 leukemia = tested on: MOLT-4 leukemia
NCI-H460 lung = tested on: NCI-H460 lung
TK-10 renal = tested on: TK-10 renal
EKVX NSCLC = tested on: EKVX NSCLC
SK-MEL-28 melanoma = tested on: SK-MEL-28 melanoma
HT29 colon = tested on: HT29 colon
SF-539 CNS = tested on: SF-539 CNS
HCT-15 colon = tested on: HCT-15 colon
LOX IMVI melanoma = tested on: LOX IMVI melanoma
HL-60(TB) leukemia = tested on: HL-60(TB) leukemia
OVCAR-8 ovarian = tested on: OVCAR-8 ovarian
M14 melanoma = tested on: M14 melanoma
ACHN renal = tested on: ACHN renal
U251 CNS = tested on: U251 CNS
MALME-3M melanoma = tested on: MALME-3M melanoma
RPMI-8226 leukemia = tested on: RPMI-8226 leukemia
HCT-116 colon = tested on: HCT-116 colon
UO-31 renal = tested on: UO-31 renal
NCI-H23 lung = tested on: NCI-H23 lung
M19-MEL melanoma = tested on: M19-MEL melanoma
LXFL 529 NSCLC = tested on: LXFL 529 NSCLC
XF 498 CNS = tested on: XF 498 CNS
A549 NSCLC = tested on: A549 NSCLC
UACC-62 melanoma = tested on: UACC-62 melanoma
KM12 colon = tested on: KM12 colon
SW-620 colon = tested on: SW-620 colon
SNB-19 CNS = tested on: SNB-19 CNS
DMS 273 small cell lung = tested on: DMS 273 small cell lung
OVCAR-3 ovarian = tested on: OVCAR-3 ovarian
SF-268 CNS = tested on: SF-268 CNS
HOP-62 NSCLC = tested on: HOP-62 NSCLC
SK-OV-3 ovarian = tested on: SK-OV-3 ovarian
MDA-MB-435 = tested on: MDA-MB-435
SK-MEL-2 melanoma = tested on: SK-MEL-2 melanoma
CAKI-1 renal = tested on: CAKI-1 renal
OVCAR-4 ovarian = tested on: OVCAR-4 ovarian
NCI/ADR-RES ovarian = tested on: NCI/ADR-RES ovarian
BT-549 breast = tested on: BT-549 breast
RXF 393 renal = tested on: RXF 393 renal
SNB-75 CNS = tested on: SNB-75 CNS
A498 renal = tested on: A498 renal
MDA-MB-231 breast = tested on: MDA-MB-231 breast
OVCAR-5 ovarian = tested on: OVCAR-5 ovarian
PC-3 prostate = tested on: PC-3 prostate
HS 578T breast = tested on: HS 578T breast
HOP-92 NSCLC = tested on: HOP-92 NSCLC
T-47D breast = tested on: T-47D breast
DU-145 prostate = tested on: DU-145 prostate
MDA-N = tested on: MDA-N
MCF7 breast = tested on: MCF7 breast

Measured: TGI

Cc1ccc(-n2cc(/C(N)=N/O)c3ccccc3c2=O)cc1
not listed: MDA-MB-435 | SK-MEL-2 melanoma | CAKI-1 renal | OVCAR-4 ovarian | NCI/ADR-RES ovarian | BT-549 breast | RXF 393 renal | SNB-75 CNS | A498 renal | MDA-MB-231 breast | OVCAR-5 ovarian | PC-3 prostate | HS 578T breast | HOP-92 NSCLC | T-47D breast | DU-145 prostate | MDA-N | MCF7 breast
> 100 µM: all other assays above

CC(=O)OCCc1cc2ccccc2oc1=O
not listed: KM20L2 colon | DMS 114 small cell lung | TK-10 renal | M19-MEL melanoma | LXFL 529 NSCLC | XF 498 CNS | DMS 273 small cell lung | SK-OV-3 ovarian
> 100 µM: all other assays above
